Structures are written as SMILES. A value given as a limit tells only on which side of the number the result lay.

The assay concerns Mia PaCa-2 cells. As to the kind of experiment: ATP assay (ATP depletion / cell viability) in Mia PaCa-2 cells. Conditions: Relative activity compare with β-lapachone in ATP depletion of Mia PaCa-2 cells. The class given is cell-based, human. The protocol: In vitro anti-cancer activity of the compound were performed using ATP Assay Kit (Abcam, ab83355) to initially screen, and further performed using 7-day DNA assay.
Cell culture: endogenous NQO1 overexpressing human MIA PaCa-2 pancreactic and A549 NSCLC cancer cells were obtained (Bey, et al., 2007; Li, et al., 2011). Cancer cells were grown in DMEM with 5% FBS and Mycoplasma free, and cultured at 37° C. in a 5% CO2 95% air humidified atmosphere.
ATP assay: Cells were seeded into each well of a 96-well plate (15000 cells/well) 18 hours ahead of experiment. After aspiration of the media from each well, 100 μl drug-contained media was added instead, and further incubated for 2 hours. After incubation, 100 μl ATP assay kit mixture was added into every well. Following further shaking for 10 minutes with light proof, the data were collected by reading luminescence integrate 1 second per well.
`CC(C)OC1=CC(=O)C(=O)c2cc(Br)ccc21` [Compound 1, 7-bromo-4-isopropoxynaphthalene-1,2-dione]: the “IC50/IC50 (β-lapachone/Compoud)” value is recorded as less than 0.3.
Consider `O=C1C=C(OC2CCCCC2)c2ccc(Br)cc2C1=O` [Compound 2, 7-bromo-4-(cyclohexyloxy)naphthalene-1,2-dione], for which the “IC50/IC50 (β-lapachone/Compoud)” value is less than 0.3.
To `CC(C)OC1=CC(=O)C(=O)c2cc(F)ccc21` [Compound 3, 7-fluoro-4-isopropoxynaphthalene-1,2-dione] belongs less than 0.3.
With `O=C1C=C(OC2CCCCC2)c2ccc(Cl)cc2C1=O` [Compound 5, 7-chloro-4-(cyclohexyloxy)naphthalene-1,2-dione] the figure was less than 0.3.
With `CC(C)OC1=CC(=O)C(=O)c2cccc(Cl)c21` [Compound 6, 5-chloro-4-isopropoxynaphthalene-1,2-dione] the figure was less than 0.3.
For `CC(C)OC1=CC(=O)C(=O)c2cccc([N+](=O)[O-])c21` [Compound 7, 4-isopropoxy-5-nitronaphthalene-1,2-dione], the “IC50/IC50 (β-lapachone/Compoud)” value is 0.3~1.
In the case of `COc1cc2c(cc1OC)C(OC(C)C)=CC(=O)C2=O` [Compound 8, 4-isopropoxy-6,7-dimethoxynaphthalene-1,2-dione], the “IC50/IC50 (β-lapachone/Compoud)” value is less than 0.3.
To `CC(C)OC1=CC(=O)C(=O)c2cc3c(cc21)OCO3` [Compound 9, 8-isopropoxynaphtho[2,3-d][1,3]dioxole-5,6-dione] belongs less than 0.3; to `Cc1cc(C)c2c(c1)C(=O)C(=O)C=C2OC(C)C` [Compound 10, 4-isopropoxy-5,7-dimethylnaphthalene-1,2-dione], less than 0.3; to `CC(C)OC1=C(Br)C(=O)C(=O)c2ccccc21` [Compound 11, 3-bromo-4-isopropoxynaphthalene-1,2-dione], less than 0.3.
Regarding `CC(C)OC1=C(Br)C(=O)c2ccccc2C1=O` [Compound 12, 2-bromo-3-isopropoxynaphthalene-1,4-dione], the “IC50/IC50 (β-lapachone/Compoud)” value was less than 0.3.
To `CC(C)OC1=C(Cl)C(=O)C(=O)c2ccccc21` [Compound 13, 3-chloro-4-isopropoxynaphthalene-1,2-dione] belongs less than 0.3; to `CC(C)OC1=CC(=O)C(=O)c2c(Cl)cccc21` [Compound 14, 8-chloro-4-isopropoxynaphthalene-1,2-dione], 0.3~1.
With `O=C1C=C(OC2CCCCC2)c2cccc(Cl)c2C1=O` [Compound 16, 8-chloro-4-(cyclohexyloxy)naphthalene-1,2-dione] the figure was 0.3~1.
With `Cc1ccc(S(=O)(=O)Nc2cccc3c2C(=O)C(=O)C=C3OC(C)C)cc1` [Compound 17, N-(5-isopropoxy-7,8-dioxo-7,8-dihydronaphthalen-1-yl)-4-methylbenzenesulfonamide] the figure was less than 0.3; with `CC(C)OC1=CC(=O)C(=O)c2c(NC(=O)C(F)(F)F)cccc21` [Compound 19, 2,2,2-trifluoro-N-(5-isopropoxy-7,8-dioxo-7,8-dihydronaphthalen-1-yl)acetamide], less than 0.3; with `CC(C)OC1=CC(=O)c2cccc(NC(=O)C(F)(F)F)c2C1=O` [Compound 20, 2,2,2-trifluoro-N-(7-isopropoxy-5,8-dioxo-5,8-dihydronaphthalen-1-yl)acetamide], less than 0.3.
In the case of `CC(C)OC1=CC(=O)c2cccc(NS(C)(=O)=O)c2C1=O` [Compound 22, N-(7-isopropoxy-5,8-dioxo-5,8-dihydronaphthalen-1-yl)methanesulfonamide], the “IC50/IC50 (β-lapachone/Compoud)” value is less than 0.3.
With `CC(C)OC1=CC(=O)C(=O)c2c(NS(=O)(=O)C(F)(F)F)cccc21` [Compound 23, 1,1,1-trifluoro-N-(5-isopropoxy-7,8-dioxo-7,8-dihydronaphthalen-1-yl)methanesulfonamide], the “IC50/IC50 (β-lapachone/Compoud)” value is less than 0.3.
With `CC(=O)Nc1cccc2c1C(=O)C(=O)C=C2OC1CCCCC1` [Compound 25, N-(5-(cyclohexyloxy)-7,8-dioxo-7,8-dihydronaphthalen-1-yl)acetamide] the figure was less than 0.3.
With `CS(=O)(=O)Nc1cccc2c1C(=O)C(=O)C=C2OC1CCCCC1` [Compound 26, N-(5-(cyclohexyloxy)-7,8-dioxo-7,8-dihydronaphthalen-1-yl)methanesulfonamide] the figure was less than 0.3; with `CC(=O)Nc1cccc2c1C(=O)C(=O)C=C2OCCCO` [Compound 27, N-(5-(3-hydroxypropoxy)-7,8-dioxo-7,8-dihydronaphthalen-1-yl)acetamide], less than 0.3.
With `CC(C)OC1=CC(=O)C(=O)c2c(N)cccc21` [Compound 29, 8-amino-4-isopropoxynaphthalene-1,2-dione] the figure was less than 0.3.
`CC(C)Nc1cccc2c1C(=O)C(OC(C)C)=CC2=O` [Compound 31, 2-isopropoxy-8-(isopropylamino)naphthalene-1,4-dione]: the “IC50/IC50 (β-lapachone/Compoud)” value is less than 0.3.
In the case of `CC(C)OC1=CC(=O)C(=O)c2cccc(Br)c21` [Compound 32, 5-bromo-4-isopropoxynaphthalene-1,2-dione], the “IC50/IC50 (β-lapachone/Compoud)” value is less than 0.3.
With `CC(C)OC1=CC(=O)C(=O)c2ccc(NC(=O)OC(C)(C)C)cc21` [Compound 33, tert-butyl (8-isopropoxy-5,6-dioxo-5,6-dihydronaphthalen-2-yl)carbamate] the figure was less than 0.3.
As to `O=C1C=C(OC2CCCCC2)c2cc(Cl)ccc2C1=O` [Compound 35, 6-chloro-4-(cyclohexyloxy)naphthalene-1,2-dione], the “IC50/IC50 (β-lapachone/Compoud)” value was 0.3~1.
`CC(C)OC1=CC(=O)C(=O)c2ccc(Br)cc21` [Compound 36, 6-bromo-4-isopropoxynaphthalene-1,2-dione]: the “IC50/IC50 (β-lapachone/Compoud)” value is reported as less than 0.3.
With `O=C1C=C(OC2CCCCC2)c2cccc(O)c2C1=O` [Compound 39, 4-(cyclohexyloxy)-8-hydroxynaphthalene-1,2-dione] the figure was 0.3~1; with `CC(C)OC1=CC(=O)C(=O)c2cccc(O)c21` [Compound 40, 5-hydroxy-4-isopropoxynaphthalene-1,2-dione], less than 0.3.
To `CC(C)OC1=CC(=O)C(=O)c2cccc(OCCN3CCOCC3)c21` [Compound 42, 4-isopropoxy-5-(2-morpholinoethoxy)naphthalene-1,2-dione] belongs less than 0.3; to `CC(=O)Nc1cccc2c1C(=O)C(=O)C=C2OCCN1CCOCC1` [Compound 43, N-(5-(2-morpholinoethoxy)-7,8-dioxo-7,8-dihydronaphthalen-1-yl)acetamide], 0.3~1; to `CC(=O)Nc1cccc2c1C(=O)C(OCCN1CCOCC1)=CC2=O` [Compound 44, N-(7-(2-morpholinoethoxy)-5,8-dioxo-5,8-dihydronaphthalen-1-yl)acetamide], 0.3~1.
With `CC(=O)Nc1cccc2c1C(=O)C(OCCN(C)C)=CC2=O` [Compound 45, N-(7-(2-(dimethylamino)ethoxy)-5,8-dioxo-5,8-dihydronaphthalen-1-yl)acetamide] the figure was 1~2; with `COC1=CC(=O)C(=O)c2c(NC(C)=O)cccc21` [Compound 46, N-(5-methoxy-7,8-dioxo-7,8-dihydronaphthalen-1-yl)acetamide], 1~3.
Take `COC1=C(C)C(=O)C(=O)c2c(NC(C)=O)cccc21` [Compound 47, N-(5-methoxy-6-methyl-7,8-dioxo-7,8-dihydronaphthalen-1-yl)acetamide]: the “IC50/IC50 (β-lapachone/Compoud)” value is less than 0.3.
Regarding `CCCCOC1=CC(=O)C(=O)c2c(NC(C)=O)cccc21` [Compound 50, N-(5-butoxy-7,8-dioxo-7,8-dihydronaphthalen-1-yl)acetamide], the “IC50/IC50 (β-lapachone/Compoud)” value is 1~2.
As for `CCCCCCCCOC1=CC(=O)C(=O)c2c(NC(C)=O)cccc21` [Compound 51, N-(5-(octyloxy)-7,8-dioxo-7,8-dihydronaphthalen-1-yl)acetamide], the “IC50/IC50 (β-lapachone/Compoud)” value is given as less than 0.3.
With `CCC(CC)OC1=CC(=O)C(=O)c2c(NC(C)=O)cccc21` [Compound 52, N-(7,8-dioxo-5-(pentan-3-yloxy)-7,8-dihydronaphthalen-1-yl)acetamide] the figure was less than 0.3; with `CCC(CC)OC1=CC(=O)C(=O)c2c(NS(C)(=O)=O)cccc21` [Compound 53, N-(7,8-dioxo-5-(pentan-3-yloxy)-7,8-dihydronaphthalen-1-yl)methanesulfonamide], less than 0.3; with `CCCCCCOC1=CC(=O)C(=O)c2c(NS(C)(=O)=O)cccc21` [Compound 54, N-(5-(hexyloxy)-7,8-dioxo-7,8-dihydronaphthalen-1-yl)methanesulfonamide], less than 0.3.
With `CCCCCCCCOC1=CC(=O)C(=O)c2c(NS(C)(=O)=O)cccc21` [Compound 55, N-(5-(octyloxy)-7,8-dioxo-7,8-dihydronaphthalen-1-yl)methanesulfonamide] the figure was 1~2; with `COCCOCCOCCOCCOC1=CC(=O)C(=O)c2c(NS(C)(=O)=O)cccc21` [Compound 56, N-(5-(2,5,8,11-tetraoxatridecan-13-yloxy)-7,8-dioxo-7,8-dihydronaphthalen-1-yl)methanesulfonamide], less than 0.3.

The values are drawn from patent publication US10829427B2, “Naphthoquinones, pro-drugs, and methods of use thereof” (The Board of Regents of the University of Texas System, priority 2015, dated 2020).
